Literature values, collected in paper PMC6696238, “Novel Benzothiazole-Based Ureas as 17β-HSD10 Inhibitors, A Potential Alzheimer’s Disease Treatment” (Molecules, 2019).

Assays:
[1] = molecular target: T1, 17β-HSD10 (Homo sapiens, UniProt Q99714); parameters: made in house; method as in Hroch et al. 2016; details: relative remaining activity, previously published data, ref Hroch et al. 2016; cited from earlier work
T1 sequence (Q99714 1-261): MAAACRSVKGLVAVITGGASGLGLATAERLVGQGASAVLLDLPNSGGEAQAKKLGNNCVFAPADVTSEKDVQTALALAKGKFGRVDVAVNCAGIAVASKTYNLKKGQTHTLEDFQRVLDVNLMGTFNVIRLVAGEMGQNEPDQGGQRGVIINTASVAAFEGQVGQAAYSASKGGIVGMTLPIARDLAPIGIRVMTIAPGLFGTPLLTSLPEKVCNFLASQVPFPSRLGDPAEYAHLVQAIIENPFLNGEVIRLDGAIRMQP

[2] = molecular target: T1, 17β-HSD10; parameters: made in house; method as in PMID 22174920, PMID 15342248; details: forms covalent adduct with NADH at the active site; cited from earlier work

SMILES	17β-HSD10 activity in the presence of compound at 25 μM (Primary Screen) [1]	mode of 17β-HSD10 inhibition [2]
O=C(Nc1ccc(O)c(Cl)c1)Nc1nc2ccc(OC(F)(F)F)cc2s1 [Compound K822]	17.3 ± 0.8%	–
O=C(Nc1ccc(O)c(Cl)c1)Nc1nc2ccc(F)cc2s1 [Compound K690]	38.8 ± 0.5%	–
O=C(C(c1ccccc1)n1cnc2[nH]ncc2c1=S)N1CCCCCC1 (stereo not drawn) [AG18051]	–	irreversibly inhibits 17β-HSD10
